# Measured values taken from patent publication US20100092526A1, “NANOEMULSION THERAPEUTIC COMPOSITIONS AND METHODS OF USING THE SAME” (NanoBio Corporation, priority 2008, published 2010).
# Several values for one entry are separate records, joined by “and”; a condition that tells them apart may be missing. Identical values can stand only once. Like-named read-outs stand apart in the source and are kept apart here.
# Experiments:
# Format in all cases: cell-based
# [1] = tested on: Acinetobacter baumannii; assay: MIC/MBC of nanoemulsions against gram-negative isolates (CLSI, alamar blue); conditions: for % resistant / % susceptible / MIC50: Acinetobacter baumannii (n = 5); for MIC50: nanoemulsions in the presence of 5 mM EDTA
# [2] = tested on: Stenotrophomonas maltophilia; assay: as above; conditions: for MIC50: Stenotrophomonas maltophilia (n = 5), nanoemulsions in the presence of 5 mM EDTA
# [3] = tested on: Haemophilus influenzae; assay: Susceptibility (MIC/MBC) of H. influenzae clinical isolates; conditions: for MIC / MIC90: Haemophilus influenzae; for MIC90 / MIC Range: H. influenzae isolates of Table 6
# [4] = tested on: methicillin-resistant Staphylococcus aureus (MRSA); assay: Susceptibility (MIC/MBC) of MRSA clinical isolates
# [5] = tested on: Burkholderia cepacia; assay: MIC/MBC of nanoemulsions against gram-negative isolates (CLSI, alamar blue); conditions: Burkholderia cepacia (n = 5), nanoemulsions in the presence of 5 mM EDTA; for MIC Range: in µg/mL
# [6] = tested on: Escherichia coli; assay: as above; conditions: Escherichia coli (n = 5)
# [7] = tested on: Proteus mirabilis; assay: as above; conditions: Proteus mirabilis (n = 5); for MIC50 / MIC Range: nanoemulsions in the presence of 5 mM EDTA
# [8] = tested on: Pseudomonas aeruginosa; assay: as above; conditions: Pseudomonas aeruginosa (n = 5); for MIC50 / MIC Range: nanoemulsions in the presence of 5 mM EDTA
# [9] = tested on: Klebsiella pneumoniae; assay: as above; conditions: Klebsiella pneumoniae (n = 5); for MIC50 / MIC Range: nanoemulsions in the presence of 5 mM EDTA; for MIC Range: in µg/mL
# [10] = strain 30, nanoemulsion values as μg CPC/ml or μg BA/ml
# [11] = strain 32, nanoemulsion values as μg CPC/ml or μg BA/ml
# [12] = strain 33, nanoemulsion values as μg CPC/ml or μg BA/ml
# [13] = strain 34, nanoemulsion values as μg CPC/ml or μg BA/ml
# [14] = strain 35, nanoemulsion values as μg CPC/ml or μg BA/ml
# [15] = strain 36, nanoemulsion values as μg CPC/ml or μg BA/ml
# [16] = strain 37, nanoemulsion values as μg CPC/ml or μg BA/ml
# [17] = strain 38, nanoemulsion values as μg CPC/ml or μg BA/ml
# [18] = strain 41, nanoemulsion values as μg CPC/ml or μg BA/ml
# [19] = strain 42, nanoemulsion values as μg CPC/ml or μg BA/ml
# [20] = strain 49247, nanoemulsion values as μg CPC/ml (P4075EC, W205EC) or μg BA/ml (W205GBA2)
# [21] = nanoemulsion values as μg CPC/ml or μg BA/ml
# [22] = Staphylococcus aureus, MRSA isolates, read-out: MIC90
# [23] = silver nitrate column, 29 MRSA clinical isolates, rank 15
# [24] = silver nitrate column, 29 MRSA clinical isolates, rank 26
# [25] = silver nitrate column, individual MRSA clinical isolates by rank order 1-29
# [26] = nanoemulsions in the presence of 5 mM EDTA
compound,measurement,setting,value
"O=C(O)CN(CCN(CC(=O)O)CC(=O)O)CC(=O)O [EDTA, ethylenediaminetetraacetic acid]",strains inhibited by EDTA alone,"[1]; 5 isolates, 5 mM EDTA",3 strains
same,strains inhibited by EDTA alone,"[2]; 5 isolates, 5 mM EDTA",5 strains
CC1(C)S[C@@H]2[C@H](NC(=O)[C@H](N)c3ccccc3)C(=O)N2[C@H]1C(=O)O [ampicillin],MIC,[3]; [10],0.25 µg/mL
same,MIC,[3]; [11],32 µg/mL
same,MIC,[3]; [12],0.25 µg/mL
same,MIC,[3]; [13],> 32 µg/mL
same,MIC,[3]; [14],0.25 µg/mL
same,MIC,[3]; [15],0.125 µg/mL
same,MIC,[3]; [16],> 32 µg/mL
same,MIC,[3]; [17],0.25 µg/mL
same,MIC,[3]; [18],> 32 µg/mL
same,MIC,[3]; [19],> 32 µg/mL
same,MIC,[3]; [20],4 µg/mL
same,MIC90,[3]; [21],> 32 µg/mL
CC[C@H]1OC(=O)[C@H](C)[C@@H](O[C@H]2C[C@@](C)(OC)[C@@H](O)[C@H](C)O2)[C@H](C)[C@@H](O[C@@H]2O[C@H](C)C[C@H](N(C)C)[C@H]2O)[C@](C)(O)C[C@@H](C)CN(C)[C@H](C)[C@@H](O)[C@]1(C)O [azithromycin],susceptibility of the majority of isolates by MIC90 values,[3]; H. influenzae,susceptible
same,MIC Range,[3]; [21],1 to 8 µg/mL
same,MIC,[3]; [10],2 µg/mL
same,MIC,[3]; [11],8 µg/mL
same,MIC,[3]; [12],1 µg/mL
same,MIC,[3]; [13],1 µg/mL
same,MIC,[3]; [14],1 µg/mL
same,MIC,[3]; [15],2 µg/mL
same,MIC,[3]; [16],1 µg/mL
same,MIC,[3]; [17],1 µg/mL
same,MIC,[3]; [18],2 µg/mL
same,MIC,[3]; [19],1 µg/mL
same,MIC,[3]; [20],1 µg/mL
same,MIC90,[3]; [21],2 µg/mL
CCC[C@@H]1C[C@@H](C(=O)N[C@@H]([C@H]2O[C@H](SC)[C@H](O)[C@@H](O)[C@H]2O)[C@H](C)Cl)N(C)C1 [clindamycin],MIC90,[4]; [22],> 64 µg/mL
same,MIC Range,[3]; [21],4 to 16 µg/mL
same,MIC,[3]; [10],16 µg/mL
same,MIC,[3]; [11],8 µg/mL
same,MIC,[3]; [12],16 µg/mL
same,MIC,[3]; [13],16 µg/mL
same,MIC,[3]; [14],8 µg/mL
same,MIC,[3]; [15],16 µg/mL
same,MIC,[3]; [16],4 µg/mL
same,MIC,[3]; [17],16 µg/mL
same,MIC,[3]; [18],8 µg/mL
same,MIC,[3]; [19],4 µg/mL
same,MIC,[3]; [20],8 µg/mL
same,MIC90,[3]; [21],16 µg/mL
O=[N+]([O-])[O-].[Ag+] [silver nitrate],MIC90,[4]; MRSA isolates,0.00063%
same,MBC50(15),[4]; [23],0.0025 µg/mL
same,MIC50(15),[4]; [23],0.00031 µg/mL
same,MBC90(26),[4]; [24],>0.01 µg/mL
same,MIC90(26),[4]; [24],0.00063 µg/mL
same,MBC,[4]; [25],0.01 μg/ml and >0.01 μg/ml (3×) and >0.005 μg/ml (3×) and 0.005 μg/ml and 0.0025 μg/ml (12×) and 0.00125 μg/ml (9×)
same,MIC,[4]; [25],0.0025 μg/ml and 0.00125 μg/ml (2×) and 0.00626 μg/ml (7×) and 0.00312 μg/ml (19×)
Cc1cc(NS(=O)(=O)c2ccc(N)cc2)no1 [sulfamethoxazole],MIC90,[4]; [22],4 µg/mL
COc1cc(Cc2cnc(N)nc2N)cc(OC)c1OC [trimethoprim],MIC90,[4]; [22],0.5 µg/mL
CN[C@H](CC(C)C)C(=O)N[C@H]1C(=O)N[C@@H](CC(N)=O)C(=O)N[C@H]2C(=O)N[C@H]3C(=O)N[C@H](C(=O)N[C@H](C(=O)O)c4cc(O)cc(O)c4-c4cc3ccc4O)[C@H](O)c3ccc(c(Cl)c3)Oc3cc2cc(c3O[C@@H]2O[C@H](CO)[C@@H](O)[C@H](O)[C@H]2O[C@H]2C[C@](C)(N)[C@H](O)[C@H](C)O2)Oc2ccc(cc2Cl)[C@H]1O [vancomycin],cidality,"[4]; MRSA, ratio of MBC90/MIC90",bactericidal (A compound or nanoemulsion is defined as bactericidal if its MBC/MIC ratio was ˜4)
same,MIC90,"[4]; Staphylococcus aureus, MRSA",1 µg/mL
Gentamicin,% resistant,[1],20.0%
same,% susceptible,[1],80.0%
same,MIC50,[1],≤ 2 µg/mL
same,MIC50,[5],> 8 µg/mL
same,MIC Range,[5],>8
same,MIC50,[2],> 8 µg/mL
same,% resistant,[6],20.0%
same,% susceptible,[6],80.0%
same,MIC50,[6]; [26],≤ 2 µg/mL
same,% resistant,[7],0.0%
same,% susceptible,[7],100.0%
same,MIC50,[7],≤ 2 µg/mL
same,MIC Range,[7]; in µg/mL,<=2
same,% resistant,[8],0.0%
same,% susceptible,[8],100.0%
same,MIC50,[8],≤ 2 µg/mL
same,MIC Range,[8],<=2-4 ^
same,% resistant,[9],0.0%
same,% susceptible,[9],100.0%
same,MIC50,[9],≤ 2 µg/mL
same,MIC Range,[9],<=2
Piperacillin/tazobactam,% resistant,[1],20.0%
same,% susceptible,[1],80.0%
same,MIC50,[1],2 µg/mL
same,MIC50,[5],4 µg/mL
same,MIC Range,[5],2-32
same,MIC50,[2],> 64 µg/mL
same,% resistant,[6],0.0%
same,% susceptible,[6],100.0%
same,MIC50,[6]; [26],2 µg/mL
same,MIC Range,"[6]; nanoemulsions in the presence of 5 mM EDTA, in µg/mL",1-8
same,% resistant,[7],0.0%
same,% susceptible,[7],100.0%
same,MIC50,[7],≤ 0.5 µg/mL
same,MIC Range,[7],<=0.5-1 ^
same,% resistant,[8],0.0%
same,% susceptible,[8],100.0%
same,MIC50,[8],2 µg/mL
same,MIC Range,[8]; in µg/mL,2-16
same,% resistant,[9],0.0%
same,% susceptible,[9],80.0%
same,MIC50,[9],2 µg/mL
same,MIC Range,[9],1-64
